Source: US11007250B2, “Methods and kits for treating pain” (Duke University, priority 2017, dated 2021)

What was measured:
[1] = system: dissociated small-diameter mouse DRG neurons; experiment: Whole-cell patch clamp recordings in dissociated mouse DRG neurons; format: cell-based; settings: SSG 11 μM
Procedure: Whole-cell patch clamp recordings in dissociated mouse DRG neuron. DRGs were aseptically removed from 4-7 week-old mice and digested with collagenase (0.2 mg/ml, Roche)/dispase-II (3 mg/ml, Roche) for 120 min. Cells were placed on glass cover slips coated with poly-D-lysine and grown in a neurobasal defined medium (10% fetal bovine serum and 2% B27 supplement) at 37° C. with 5% CO2/95% air for 24 h before experiments. Whole-cell voltage clamp recordings were performed at room temperature to measure transient sodium currents and action potentials, respectively, with an EPC10 amplifier (HEKA) and an Axopatch-200B amplifier with a Digidata 1440A (Axon Instruments) (Xu, Z Z, et al. 2015). The patch pipettes were pulled from borosilicate capillaries (Chase Scientific Glass Inc.). When filled with the pipette solution, the resistance of the pipettes was 4-5 MQ. The recording chamber (300 μl) was continuously superfused (3-4 ml/min). Series resistance was compensated for (>80%), and leak subtraction was performed. Data were low-pass-filtered at 2 KHz, sampled at 10 KHz. The pClamp10 (Axon Instruments) software was used during experiments and analysis. For sodium current recording, pipette solution contained (in mM): CsCl 130, NaCl 9, MgCl2 1, EGTA 10, HEPES 10, adjusted to pH 7.4 with CsOH. […] RMP was measured without a current injection.

[2] = system: small-diameter human DRG neurons; experiment: Patch clamp recordings in dissociated human DRG neurons; format: cell-based; settings: SSG 11 μM
Procedure: Primary cultures and patch clam recordings in human DRG neurons. Non-diseased human DRGs were obtained from donors through NDRI with permission of exemption from Duke IRB. Postmortem L3-L5 DRGs were dissected from 5 male donors at the age of 27, 31, 43, 54, and 67 and delivered in ice-cold culture medium to the laboratory at Duke University within 24-72 hours of death. Upon the delivery, DRGs were rapidly dissected from nerve roots and minced in a calcium-free HBSS (Gibco). Human DRG cultures were prepared as previously reported (Xu, Z Z, et al. 2015). DRGs were digested at 37° C. in humidified O2 incubator for 120 min with collagenase Type II (Worthington, 285 units/mg, 12 mg/ml final concentration) and dispase II (Roche, 1 unit/mg, 20 mg/ml) in PBS with 10 mM HEPES, pH adjusted to 7.4 with NaOH. DRGs were mechanically dissociated using fire-polished pipettes, filtered through a […] nylon mesh and centrifuged (500×g for 5 min). The pellet was resuspended, plated on 0.5 mg/ml poly-D-lysine-coated glass coverslips, and cells were grown in Neurobasal medium supplemented with 10% FBS, 2% B-27 supplement, 1% N-2 supplement, and 1% penicillin/streptomycin. Whole-cell patch clamp recordings in small-diameter DRG neurons (<55 μm) were conducted at room temperature using patch pipettes with resistances of 2-3 MD. […] The resting membrane potential was measured without a current injection.

[3] = system: naive mice; experiment: Basal pain in naive mice (von Frey test, spontaneous pain); format: in vivo, mouse
[4] = system: TREK2 in CHO cells co-expressing PD-1 and TREK2; experiment: Patch clamp recordings in transfected CHO cells; format: cell-based; settings: SSG
Procedure: CHO cell culture, transfection and electrophysiology. CHO cell line was purchased from Duke Cell Culture Facility. Cells were cultured in high glucose (4.5 g/L) Dulbecco's Modified Eagle's Medium containing 10% (v/v) fetal bovine serum (Gibco). Transfection (1 μg cDNA) was performed with Lipofectamine™ 2000 Reagent (Invitrogen) at 70% confluency and the transfected cells were cultured in the same growth medium for 48 h before electrophysiological and biochemical studies. PD1/PDCD1 cDNA construct (SC117011, NM_005018) and TREK2/KCNK10 cDNA construct (SC110477, NM_021161) were purchased from Origene Technologies.
Whole-cell patch clamp recordings in transfected CHO cells were conducted at room temperature using patch pipettes with resistances of 5-6 MD. The recording chamber was continuously superfused (3-4 ml/min). The data were acquired at a rate of 10 kHz and filtered at 3 kHz using an EPC-10 amplifier (HEKA, Germany). Pipette solution contained (in mM): K-gluconate 126, NaCl 10, MgCl2 1, EGTA 10, NaATP 2, and MgGTP 0.1, adjusted to pH 7.3 with KOH. The external solution was composed of (in mM): NaCl 140, KCl 5, CaCl2 2, MgCl2 1, HEPES 10, glucose 10, adjusted to pH 7.4 with NaOH. […] In current-clamp experiments, the resting membrane potential was measured without any membrane potential compensation.

[5] = system: melanoma-bearing mice; experiment: Mouse melanoma model: spontaneous pain, von Frey test, CPP; format: in vivo; settings: for spontaneous pain (licking/flinching) in melanoma-bearing mice: SSG 5 μg i.pl.
[6] = system: phosphorylation of SHP-1 (pSHP-1); experiment: pSHP-1 immunostaining in mouse DRG neurons; format: cell-based; settings: dissociated DRG neurons; PD-L1 10 ng/ml, SSG 11 μM
[7] = system: mice; experiment: Tail-flick and hot-plate tests of morphine antinociception; format: in vivo, mouse; settings: morphine 10 mg/kg s.c.
Procedure: Tail-flick test. All animals were habituated to testing environment for at least 2 days before baseline testing. Mice were gently held by a hand with a terry glove and with tails exposed. The distal 3 cm of the tail was immersed into the 50° C. hot water. The tail-flick latency was the time required for a mouse to flick or remove its tail out of the water. A maximum cut-off value of 15 seconds was set to avoid thermal injury. Tail-flick latency was determined both before and after drug injection. Data are expressed as the maximum possible effect (MPE) calculated as MPE (%)=100×[(postdrug response baseline response)/(cutoff response−baseline response)]. The MPE (%) data from each animal were converted to area under the curve (AUC).
Hot-plate test. All animals were habituated to testing environment for at least 2 days before baseline testing. […] A maximum cut-off value of 40 seconds was set to avoid tissue injury. Data are expressed as the maximum possible effect (MPE) calculated as MPE (%)=100×[(postdrug response−baseline response)/(cutoff response−baseline response)]. The MPE (%) data from each animal were converted to area under the curve (AUC).

[8] = system: T cell, macrophage and inflammatory cytokine marker mRNA; experiment: Quantitative real-time RT-PCR of immune markers in melanoma-bearing hindpaw skin; settings: 3 h after sPD-1 treatment (5 μg, i.pl.), MCI-4w
[9] = system: lamina 110 neurons in spinal cord slices; experiment: Patch clamp recordings of sEPSCs in spinal cord slices; format: cell-based, mouse; settings: PD-L1 30 ng/ml, sPD-1 30 ng/ml perfusion; Nivolumab 300 ng/ml, 3 h
[10] = system: small-diameter neurons of whole-mount DRG; experiment: Whole-cell patch clamp recordings in whole mount DRGs ex vivo; format: cell-based, mouse; settings: WT whole mount DRG; sPD-1 30 ng/ml, Nivolumab 300 ng/ml
Procedure: Whole-cell patch clamp recordings in whole mount DRGs of mice ex vivo. L4-L5 DRGs were carefully removed 4 days after sham surgery or CCI surgery and placed in cold oxygenated ACSF. The connective tissue was gently removed under a microscope and the ganglia were digested with a mixture of 0.4 mg/mL trypsin (Sigma) and 1.0 mg/ml type-A collagenase (Sigma) for 30 min at 37° C. The intact ganglia were then incubated in ACSF oxygenated with 95% O2 and 5% CO2 at 28° C. for at least 1 h before transferring them to the recording chamber. DRG neurons were visualized with a 40× water-immersion objective using a BX51WI microscope (Olympus). Whole-cell current and voltage recordings were acquired with an Axon700B amplifier. Patch pipettes (4-7 MO) were pulled from borosilicate glass capillaries on P-97 puller. The recording chamber (300 μl) was continuously superfused (3-4 ml/min). Series resistance was compensated for (>80%), and leak subtraction was performed. The pipette solution contained (in mM): 140 KCl, 2 MgCl2, 10 Hepes, 2 Mg-ATP, pH 7.4. Osmolarity was adjusted to 290-300 mOsm. Data was acquired with a Digidata 1322A acquisition system (molecular devices) using pCLAMP 9.0 software. Signals were low-pass filtered at 5 kHz, sampled at 10 kHz and analyzed offline.

[11] = MCI-4w, sPD-1 5 μg i.pl., siRNA 2 μg peri-sciatic, Nivolumab 3-10 mg/kg i.v., RMP1-14 10 mg/kg i.v.
[12] = i.pl., sPD-1 5 μg, RMP1-14 5 μg, Nivolumab 10 μg

Row | Molecule | effect on PD-L1-induced inhibition of sodium currents [1] | effect on PD-L1-induced inhibition of sodium currents [2] | effect on analgesic effect of PD-L1 ([3]; i.pl. SSG plus PD-L1, naive mice) | effect on PD-L1-induced RMP change ([4]; CHO cells co-expressing PD-1 and TREK2) | effect on PD-L1 potentiation of TREK2 currents and Erev shift ([4]; PD-1/TREK2 co-expressing CHO cells) | spontaneous pain (licking/flinching) in melanoma-bearing mice [5, 11] | effect on PD-L1-induced SHP-1 phosphorylation [6] | analgesic effect of morphine after human IgG ([7]; human IgG i.v.) | analgesic effect of morphine in Pd1−/− mice compared to WT [7] | mRNA levels of immune/inflammatory markers in hindpaw skin [8] | duration of mechanical allodynia in naive mice [3, 12] | mechanical allodynia in naive mice [3, 12] | spontaneous pain in naive mice ([3]; sPD-1 5 μg i.pl.) | amplitude of spontaneous EPSCs (sEPSCs) [9] | frequency of spontaneous EPSCs (sEPSCs) [9] | firing rate of action potentials [10] | mechanical allodynia in melanoma-bearing mice [5, 11] | conditioned place preference (CPP), ongoing pain ([5]; i.pl. sPD-1, two-chamber test) | onset of spontaneous pain after injection ([5]; sPD-1 5 μg i.pl., MCI-4w)
1 | O.O.O.O.O.O.O.O.O.O=C([O-])[C@@H]1[O][Sb]2([O-])([O][Sb]34([OH])[O][C@H]([C@H](O)CO)[C@H]([O]3)[C@H](C(=O)[O-])[O]4)[O][C@H]([C@H](O)CO)[C@@H]1[O]2.[Na+].[Na+].[Na+] [SSG, sodium stibogluconate] | partially blocked | completely blocked | abolished | blocked | abolished | elicited spontaneous pain | blocked | – | – | – | – | – | – | – | – | – | – | – | –
2 | CN1CC[C@]23c4c5ccc(O)c4O[C@H]2[C@@H](O)C=C[C@H]3[C@H]1C5 [morphine] | – | – | – | – | – | – | – | typical analgesic effect | reduced analgesic (antinociceptive) effect | – | – | – | – | – | – | – | – | – | –
3 | sPD-1: soluble PD-1 used to neutralize PD-L1; Mouse PD-1 from R&D (1021-PD-100) | – | – | – | – | – | marked spontaneous pain | – | – | – | did not alter | 3 h | transient mechanical allodynia | without causing spontaneous pain | not amplitude | increased sEPSC frequency | increased the firing rate | induced mechanical allodynia | marked CPP | 10 to 30 min
